Key:
[1] = biological target: T1, Discoidin domain-containing receptor 2 (Homo sapiens) (UniProt Q16832); assay: Competitive binding affinity to DDR2 (unknown origin) at 10 uM in presence of ATP relative to control
T1 sequence (whole entry): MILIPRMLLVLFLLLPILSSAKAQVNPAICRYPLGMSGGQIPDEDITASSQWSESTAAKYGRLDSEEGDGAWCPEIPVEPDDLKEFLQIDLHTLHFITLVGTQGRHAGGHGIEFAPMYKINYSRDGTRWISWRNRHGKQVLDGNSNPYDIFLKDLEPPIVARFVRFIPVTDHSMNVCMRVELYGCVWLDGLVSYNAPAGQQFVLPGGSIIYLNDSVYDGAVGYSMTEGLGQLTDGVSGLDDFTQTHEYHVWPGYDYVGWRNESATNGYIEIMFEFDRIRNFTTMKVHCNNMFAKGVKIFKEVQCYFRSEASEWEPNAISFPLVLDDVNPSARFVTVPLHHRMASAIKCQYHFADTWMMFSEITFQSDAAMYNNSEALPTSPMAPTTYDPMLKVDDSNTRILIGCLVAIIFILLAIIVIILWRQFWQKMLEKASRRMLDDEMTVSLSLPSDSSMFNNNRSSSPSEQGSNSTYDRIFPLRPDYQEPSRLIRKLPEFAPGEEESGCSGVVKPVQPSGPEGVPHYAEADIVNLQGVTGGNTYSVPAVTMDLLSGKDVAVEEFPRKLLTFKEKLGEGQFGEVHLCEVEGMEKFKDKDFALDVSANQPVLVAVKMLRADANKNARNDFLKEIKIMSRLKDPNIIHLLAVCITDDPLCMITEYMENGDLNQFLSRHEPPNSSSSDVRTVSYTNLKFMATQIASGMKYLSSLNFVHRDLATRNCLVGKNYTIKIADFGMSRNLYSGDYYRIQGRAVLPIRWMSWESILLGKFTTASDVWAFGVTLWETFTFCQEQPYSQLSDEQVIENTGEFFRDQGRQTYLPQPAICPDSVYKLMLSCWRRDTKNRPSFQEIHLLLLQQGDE

[2] = biological target: Serine/threonine-protein kinase SIK1 (Homo sapiens) (UniProt P57059); assay: Competitive binding affinity to SNF1LK (unknown origin) at 10 uM in presence of ATP relative to control
[3] = biological target: T2, Tyrosine-protein kinase ZAP-70 (Homo sapiens) (UniProt P43403); assay: Competitive binding affinity to ZAP70 (unknown origin) at 10 uM in presence of ATP relative to control
T2 sequence (whole entry): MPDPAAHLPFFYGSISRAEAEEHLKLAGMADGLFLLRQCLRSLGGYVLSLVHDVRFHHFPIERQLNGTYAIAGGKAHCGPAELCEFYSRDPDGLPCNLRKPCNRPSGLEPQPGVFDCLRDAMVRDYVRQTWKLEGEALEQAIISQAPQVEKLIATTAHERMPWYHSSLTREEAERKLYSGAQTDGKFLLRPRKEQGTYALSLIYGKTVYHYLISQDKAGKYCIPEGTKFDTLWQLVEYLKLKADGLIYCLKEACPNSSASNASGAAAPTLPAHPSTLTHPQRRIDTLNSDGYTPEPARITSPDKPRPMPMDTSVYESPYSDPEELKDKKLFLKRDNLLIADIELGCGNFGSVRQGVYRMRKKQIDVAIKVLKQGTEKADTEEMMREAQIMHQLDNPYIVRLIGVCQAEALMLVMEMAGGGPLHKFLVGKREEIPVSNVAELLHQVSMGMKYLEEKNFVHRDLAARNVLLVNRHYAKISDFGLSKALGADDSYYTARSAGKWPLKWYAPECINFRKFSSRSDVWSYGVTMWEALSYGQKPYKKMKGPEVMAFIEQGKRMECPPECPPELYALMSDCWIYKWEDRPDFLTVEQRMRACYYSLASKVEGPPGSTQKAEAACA

[4] = biological target: T3, Protein kinase C epsilon type (Homo sapiens) (UniProt Q02156); assay: Competitive binding affinity to PRKCE (unknown origin) at 10 uM in presence of ATP relative to control
T3 sequence (whole entry): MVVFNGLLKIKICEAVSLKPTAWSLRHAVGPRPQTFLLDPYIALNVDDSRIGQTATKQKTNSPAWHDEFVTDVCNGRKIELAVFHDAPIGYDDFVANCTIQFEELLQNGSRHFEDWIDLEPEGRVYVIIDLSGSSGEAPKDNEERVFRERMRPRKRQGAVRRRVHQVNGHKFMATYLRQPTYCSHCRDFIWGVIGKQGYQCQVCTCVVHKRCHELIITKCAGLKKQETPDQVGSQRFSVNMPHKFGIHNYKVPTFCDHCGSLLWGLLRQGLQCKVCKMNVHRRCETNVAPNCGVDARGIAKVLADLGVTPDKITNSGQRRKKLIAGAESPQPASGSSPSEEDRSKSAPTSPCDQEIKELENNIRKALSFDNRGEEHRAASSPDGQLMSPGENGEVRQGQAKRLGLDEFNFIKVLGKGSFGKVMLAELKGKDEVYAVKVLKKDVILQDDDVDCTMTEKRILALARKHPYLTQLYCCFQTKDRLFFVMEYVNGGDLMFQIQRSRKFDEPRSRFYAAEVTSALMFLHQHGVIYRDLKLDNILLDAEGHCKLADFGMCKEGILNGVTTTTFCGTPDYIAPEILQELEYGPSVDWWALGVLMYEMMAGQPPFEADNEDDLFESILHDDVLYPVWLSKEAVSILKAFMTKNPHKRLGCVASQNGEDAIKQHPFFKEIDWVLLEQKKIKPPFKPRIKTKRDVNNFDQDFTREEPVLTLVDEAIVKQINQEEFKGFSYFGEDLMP

[5] = biological target: T4, Serine/threonine-protein kinase 17A (Homo sapiens) (UniProt Q9UEE5); assay: Competitive binding affinity to DRAK1 (unknown origin) at 10 uM in presence of ATP relative to control
T4 sequence (whole entry): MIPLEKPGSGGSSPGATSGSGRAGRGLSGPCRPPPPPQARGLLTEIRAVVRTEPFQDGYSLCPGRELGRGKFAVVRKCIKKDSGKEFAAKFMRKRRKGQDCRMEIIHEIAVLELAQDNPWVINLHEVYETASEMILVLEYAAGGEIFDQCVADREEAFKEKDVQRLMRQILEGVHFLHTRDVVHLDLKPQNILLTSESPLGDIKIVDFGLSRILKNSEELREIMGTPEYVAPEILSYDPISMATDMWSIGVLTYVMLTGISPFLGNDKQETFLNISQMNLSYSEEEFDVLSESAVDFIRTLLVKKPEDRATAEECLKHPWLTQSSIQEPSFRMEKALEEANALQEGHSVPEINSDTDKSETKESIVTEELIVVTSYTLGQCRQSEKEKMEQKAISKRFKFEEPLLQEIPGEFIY

[6] = biological target: Serine/threonine-protein kinase N1 (Homo sapiens) (UniProt Q16512); assay: Competitive binding affinity to PKN1 (unknown origin) at 10 uM in presence of ATP relative to control
[7] = biological target: NT-3 growth factor receptor (Homo sapiens) (UniProt Q16288); assay: Competitive binding affinity to TRKC (unknown origin) at 10 uM in presence of ATP relative to control
Sequence of NT-3 growth factor receptor (Homo sapiens) (Q16288 32-839 limits assumed): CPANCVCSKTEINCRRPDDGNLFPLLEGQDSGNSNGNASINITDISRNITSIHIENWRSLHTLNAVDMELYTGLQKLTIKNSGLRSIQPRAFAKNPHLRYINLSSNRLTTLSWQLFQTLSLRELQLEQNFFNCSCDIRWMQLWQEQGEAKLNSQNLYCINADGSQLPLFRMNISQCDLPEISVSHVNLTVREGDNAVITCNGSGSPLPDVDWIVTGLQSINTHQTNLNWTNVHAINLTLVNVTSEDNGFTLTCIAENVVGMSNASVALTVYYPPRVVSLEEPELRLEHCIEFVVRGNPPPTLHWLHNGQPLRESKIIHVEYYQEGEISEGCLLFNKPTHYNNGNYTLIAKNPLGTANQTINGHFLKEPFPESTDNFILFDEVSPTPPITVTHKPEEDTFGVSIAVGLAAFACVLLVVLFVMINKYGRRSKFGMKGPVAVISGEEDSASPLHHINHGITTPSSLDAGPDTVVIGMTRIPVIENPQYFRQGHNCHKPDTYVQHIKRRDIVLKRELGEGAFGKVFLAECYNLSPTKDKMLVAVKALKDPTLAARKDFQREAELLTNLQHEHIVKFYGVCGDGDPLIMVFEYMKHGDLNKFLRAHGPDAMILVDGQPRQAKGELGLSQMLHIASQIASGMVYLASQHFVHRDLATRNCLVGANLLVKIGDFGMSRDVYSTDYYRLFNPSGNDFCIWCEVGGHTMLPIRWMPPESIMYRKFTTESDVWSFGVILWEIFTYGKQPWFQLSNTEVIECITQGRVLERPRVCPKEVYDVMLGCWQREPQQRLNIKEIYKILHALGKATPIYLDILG

Sequence of Serine/threonine-protein kinase SIK1 (Homo sapiens) (P57059 whole entry): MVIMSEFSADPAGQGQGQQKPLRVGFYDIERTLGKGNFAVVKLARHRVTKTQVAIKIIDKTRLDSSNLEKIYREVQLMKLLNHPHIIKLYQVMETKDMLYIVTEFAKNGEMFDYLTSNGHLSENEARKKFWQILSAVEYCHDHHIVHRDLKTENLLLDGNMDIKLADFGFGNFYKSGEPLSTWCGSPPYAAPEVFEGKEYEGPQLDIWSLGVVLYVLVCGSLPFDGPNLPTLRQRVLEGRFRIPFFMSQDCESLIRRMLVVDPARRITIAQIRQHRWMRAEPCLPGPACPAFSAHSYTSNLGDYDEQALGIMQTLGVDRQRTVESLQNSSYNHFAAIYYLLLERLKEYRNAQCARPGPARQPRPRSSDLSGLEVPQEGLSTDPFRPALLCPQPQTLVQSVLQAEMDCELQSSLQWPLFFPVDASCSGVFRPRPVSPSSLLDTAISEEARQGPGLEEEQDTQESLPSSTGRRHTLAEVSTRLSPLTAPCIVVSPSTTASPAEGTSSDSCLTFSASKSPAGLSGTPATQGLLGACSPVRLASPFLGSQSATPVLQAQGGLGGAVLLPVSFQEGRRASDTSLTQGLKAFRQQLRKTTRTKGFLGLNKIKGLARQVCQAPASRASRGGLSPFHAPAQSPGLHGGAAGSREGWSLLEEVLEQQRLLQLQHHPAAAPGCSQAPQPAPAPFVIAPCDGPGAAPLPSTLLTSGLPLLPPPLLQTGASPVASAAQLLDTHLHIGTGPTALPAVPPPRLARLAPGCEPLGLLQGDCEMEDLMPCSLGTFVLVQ
Sequence of Serine/threonine-protein kinase N1 (Homo sapiens) (Q16512 2-942 limits assumed): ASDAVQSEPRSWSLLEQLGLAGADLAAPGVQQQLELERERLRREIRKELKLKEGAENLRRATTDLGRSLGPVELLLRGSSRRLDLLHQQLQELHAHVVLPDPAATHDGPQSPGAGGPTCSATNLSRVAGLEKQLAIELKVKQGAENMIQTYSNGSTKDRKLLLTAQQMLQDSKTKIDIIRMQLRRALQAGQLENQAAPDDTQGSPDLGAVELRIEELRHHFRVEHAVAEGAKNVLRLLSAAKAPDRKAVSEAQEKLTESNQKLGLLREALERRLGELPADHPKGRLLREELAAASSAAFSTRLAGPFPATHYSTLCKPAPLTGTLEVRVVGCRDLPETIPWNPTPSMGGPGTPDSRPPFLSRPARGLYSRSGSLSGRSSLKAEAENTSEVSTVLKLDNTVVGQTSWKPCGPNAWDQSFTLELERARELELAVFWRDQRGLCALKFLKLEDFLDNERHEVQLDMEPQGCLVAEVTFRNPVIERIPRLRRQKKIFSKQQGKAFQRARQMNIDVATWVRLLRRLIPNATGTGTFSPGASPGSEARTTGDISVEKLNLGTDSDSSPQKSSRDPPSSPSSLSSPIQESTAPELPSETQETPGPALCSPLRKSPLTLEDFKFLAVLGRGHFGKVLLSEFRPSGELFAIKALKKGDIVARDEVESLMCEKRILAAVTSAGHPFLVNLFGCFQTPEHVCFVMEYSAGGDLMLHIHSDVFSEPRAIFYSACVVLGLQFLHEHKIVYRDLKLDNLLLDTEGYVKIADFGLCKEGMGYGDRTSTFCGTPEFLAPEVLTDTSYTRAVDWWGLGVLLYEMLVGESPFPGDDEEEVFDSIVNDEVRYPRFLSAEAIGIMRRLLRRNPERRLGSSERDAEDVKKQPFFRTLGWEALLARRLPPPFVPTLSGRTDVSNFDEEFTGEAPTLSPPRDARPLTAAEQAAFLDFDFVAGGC

inhibition [1] [%]	inhibition [2] [%]	inhibition [3] [%]	inhibition [4] [%]	inhibition [5] [%]	inhibition [6] [%]	inhibition [7] [%]	SMILES
< 50	< 50	< 50	< 50	99	< 50	< 50	O[C@H]1CC[C@H](Nc2nccc(-n3ncc4ccccc43)n2)CC1
< 50	< 50	< 50	< 50	98	< 50	< 50	O[C@H]1CC[C@H](Nc2nccc(-n3ccc4ccccc43)n2)CC1
		< 50				99	O[C@H]1CC[C@H](Nc2nccc(-c3n[nH]c4ccccc34)n2)CC1
< 50	< 50	< 50	< 50	100	< 50	< 50	O[C@H]1CC[C@H](Nc2nccc(-n3nnc4ccccc43)n2)CC1
				> 85			CS(=O)(=O)CCCOc1cccc2c1ccn2-c1ccnc(N[C@H]2CC[C@H](C(=O)N3CCC(O)CC3)CC2)n1

Source: ChEMBL document CHEMBL2424622, “Development of amino-pyrimidine inhibitors of c-Jun N-terminal kinase (JNK): kinase profiling guided optimization of a 1,2,3-benzotriazole lead” (Bioorg Med Chem Lett, 2013)
